Data: article PMC11025887, “The SARM1 TIR domain produces glycocyclic ADPR molecules as minor products” (PLOS ONE, 2024)

Target: T1, Drosophila SARM1 TIR domain (Drosophila melanogaster, UniProt Q6IDD9)
T1 construct: gene Sarm; TIR domain only; N-terminal 6xHis tag kept; codon optimized; E. coli BL21(DE3)
T1 sequence (Q6IDD9 837-981 limits assumed): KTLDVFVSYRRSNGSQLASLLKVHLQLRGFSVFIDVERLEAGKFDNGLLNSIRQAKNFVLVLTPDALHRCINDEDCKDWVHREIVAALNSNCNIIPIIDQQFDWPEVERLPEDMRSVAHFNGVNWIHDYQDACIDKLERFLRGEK
Assay: LC-MS/MS of NAD+ and products
Format: biochemical
Conditions: […] protein; […] NAD+; […] HEPES-KOH pH […]; […] NaCl; […] TCEP; […] C; […] h; main product cADPR

## NC(=O)c1ccc[n+]([C@@H]2O[C@H](COP(=O)(O)OP(=O)(O)OC[C@H]3O[C@@H](n4cnc5c(N)ncnc54)[C@H](O)[C@@H]3O)[C@@H](O)[C@H]2O)c1 [NAD^+]
  LC-MS/MS of NAD+ and products: SARM1 TIR domains consumed NAD^+ efficiently
